Converted amounts (≈) assume the structure as drawn.
Key:
Salmonella paratyphi-B = test: Minimum inhibitory concentration (MIC), broth dilution; assay type: cell-based; conditions: 24 h at 37° C.
Shigella flexneri = test: as above; conditions: 24 h, read-out: Minimum Inhibitory Concentration (MIC)
Candida albicans = test: Minimum inhibitory concentration (MIC), fungi; conditions: read-out: Minimum Inhibitory Concentration (MIC)
[1] = tested on: Klebsiella pneumoniae (ESBL-3894); test: Minimum inhibitory concentration (MIC), clinical isolate; conditions: 24 h, read-out: Minimum Inhibitory Concentration (MIC)
[2] = tested on: Staphylococcus aureus (MRSA); test: as above; conditions: 24 h, read-out: Minimum Inhibitory Concentration (MIC)
[3] = tested on: Escherichia coli (ESBL-3984); test: as above; conditions: 24 h, read-out: Minimum Inhibitory Concentration (MIC)
Malassezia pachydermatis = test: Minimum inhibitory concentration (MIC), fungi; conditions: read-out: Minimum Inhibitory Concentration (MIC)
Pseudomonas aeruginosa = test: Minimum inhibitory concentration (MIC), broth dilution; conditions: 24 h, read-out: Minimum Inhibitory Concentration (MIC)
Proteus vulgaris = test: as above; conditions: 24 h, read-out: Minimum Inhibitory Concentration (MIC)
[4] = tested on: Staphylococcus epidermidis; test: as above; conditions: 24 h, read-out: Minimum Inhibitory Concentration (MIC)
Klebsiella pneumoniae = test: as above; conditions: 24 h, read-out: Minimum Inhibitory Concentration (MIC)
[5] = tested on: Kiebsiella pneumoniae (ESBL-75799); test: Minimum inhibitory concentration (MIC), clinical isolate; conditions: 24 h, read-out: Minimum Inhibitory Concentration (MIC)
[6] = tested on: A549 lung adenocarcinoma cancer cell line; test: Cytotoxic activity (MTT, absorbance at 540 nm); assay type: cell-based, human
Protocol: A549 lung adenocarcinoma cancer cell line was obtained from the National Institute of Cell Sciences, Pune. A549 cell line was maintained in complete tissue culture medium Dulbecco's Modified Eagle's Medium with 10% Fetal Bovine Serum and 2 mM L-Glutamine, along with antibiotics (about 100 International Unit/mL of penicillin, 100 μg/mL of streptomycin) with the pH adjusted to 7.2. The cytotoxicity was determined according to the method of Balachandran et al., (2013) with some changes. Cells (5000 cells/well) were seeded in 96 well plates containing medium with different concentrations such as 100, 80, 60, 40, 20, and 10 μg/mL. The cells were cultivated at 37° C. with 5% CO2 and 95% air in 100% relative humidity. After various durations of cultivation, the solution in the medium was removed. An aliquot of 100 μL of medium containing 1 mg/mL of 3-(4,5-dimethylthiazol-2-yl)-2,5-diphenyl-tetrazolium bromide was loaded in the plate. The cells were cultured for 4 h and then the solution in the medium was removed. An aliquot of 100 μL of DMSO was added to the plate, which was shaken until the crystals were dissolved. The cytotoxicity against cancer cells was determined by measuring the absorbance of the converted dye at 540 nm in an Enzyme linked immune sorbant assay (ELISA) reader. Cytotoxicity of each sample was expressed as the half maximal inhibitory concentration (IC50) value. The IC50 value is the concentration of test sample that causes 50% inhibition of cell growth, averaged from three replicate experiments.

Bacillus subtilis = test: Minimum inhibitory concentration (MIC), broth dilution; conditions: 24 h, read-out: Minimum Inhibitory Concentration (MIC)
Enterobacter aerogenes = test: as above; conditions: Klebsiella aerogenes, 24 h, read-out: Minimum Inhibitory Concentration (MIC)
[7] = tested on: Klebsiella pneumoniae (ESBL-3971); test: Minimum inhibitory concentration (MIC), clinical isolate; conditions: 24 h, read-out: Minimum Inhibitory Concentration (MIC)
[8] = tested on: Escherichia coli (ESBL-3904); test: as above; conditions: 24 h, read-out: Minimum Inhibitory Concentration (MIC)
Salmonella typhimurium = test: Minimum inhibitory concentration (MIC), broth dilution; conditions: Salmonella enterica, 24 h, read-out: Minimum Inhibitory Concentration (MIC)
Micrococcus luteus = test: as above; conditions: 24 h, read-out: Minimum Inhibitory Concentration (MIC)
Staphylococcus aureus = test: as above; conditions: 24 h, read-out: Minimum Inhibitory Concentration (MIC)
[9] = tested on: Klebsiella pneumoniae (ESBL-3967); test: Minimum inhibitory concentration (MIC), clinical isolate; conditions: 24 h, read-out: Minimum Inhibitory Concentration (MIC)
[10] = tested on: Streptomyces sp. isolate ERINLG-201; test: Antibiotic sensitivity of the isolate; assay type: cell-based
Protocol: (ERINLG-201). The Streptomyces sp. isolate ERINLG-201 was recovered from Kodanad forest, (Southern Western Ghats) Tamil Nadu, India. The strain was Gram-positive filamentous bacterium. The culture characteristics of the new isolate were observed after 7, 14 and 21 days of incubation on different media. The color of the substrate mycelia was white. […] The temperature for growth ranged from 25 to 37° C. with optimum of 30° C. and the pH range was 6-12 with normal pH of 7. Utilization of various carbon sources by ERINLG-201 indicated a wide pattern of carbon source assimilation. […] The partial 16S rRNA gene sequences of isolate ERINLG-201 have been deposited in the GenBank database under accession number KC820651.

## CN1C(=O)N2CC(C)(OC3=C2C(=O)c2ccccc2C3=O)c2ccccc21 (stereo not drawn) [C-5, Bluemomycin]
Salmonella paratyphi-B
  MIC: 25 µg/mL (≈ 69.4 µM)
Shigella flexneri
  MIC: 12.5 µg/mL (≈ 34.7 µM)
Candida albicans
  MIC: 50 µg/mL (≈ 139 µM)
[1]
  MIC: 12.5 µg/mL (≈ 34.7 µM)
[2]
  MIC: 25 µg/mL (≈ 69.4 µM)
[3]
  MIC: 12.5 µg/mL (≈ 34.7 µM)
Malassezia pachydermatis
  MIC: 50 µg/mL (≈ 139 µM)
Pseudomonas aeruginosa
  MIC: 12.5 µg/mL (≈ 34.7 µM)
Proteus vulgaris
  MIC: 100 µg/mL (≈ 277 µM)
[4]
  MIC: 50 µg/mL (≈ 139 µM)
Klebsiella pneumoniae
  MIC: 6.25 µg/mL (≈ 17.3 µM)
[5]
  MIC: 12.5 µg/mL (≈ 34.7 µM)
[6]; 5 μg/mL
  % (cytotoxicity): 10.5%
[6]; 10 μg/mL
  % (cytotoxicity): 26.3%
[6]; 20 μg/mL
  % (cytotoxicity): 51.7%
[6]; 40 μg/mL
  % (cytotoxicity): 60.2%
[6]; 60 μg/mL
  % (cytotoxicity): 68.6%
[6]; 80 μg/mL
  % (cytotoxicity): 78.6%
[6]; 100 μg/mL
  % (cytotoxicity): 88.7%
Bacillus subtilis
  MIC: 50 µg/mL (≈ 139 µM)
Enterobacter aerogenes
  MIC: 12.5 µg/mL (≈ 34.7 µM)
[7]
  MIC: > 100 µg/mL
[8]
  MIC: 25 µg/mL (≈ 69.4 µM)
Salmonella typhimurium
  MIC: 12.5 µg/mL (≈ 34.7 µM)
Micrococcus luteus
  MIC: 25 µg/mL (≈ 69.4 µM)
Staphylococcus aureus
  MIC: > 100 µg/mL
[9]
  MIC: 6.25 µg/mL (≈ 17.3 µM)

## CC(=O)N1CCN(c2ccc(OCC3COC(Cn4ccnc4)(c4ccc(Cl)cc4Cl)O3)cc2)CC1 (stereo not drawn) [Ketoconazole]
Candida albicans
  MIC: 25 µg/mL (≈ 47 µM)
Malassezia pachydermatis
  MIC: 25 µg/mL (≈ 47 µM)

## [H]/N=C(/N)N[C@H]1[C@H](O)[C@@H](O)[C@H](O[C@@H]2O[C@@H](C)[C@](O)(C=O)[C@H]2O[C@@H]2O[C@@H](CO)[C@H](O)[C@@H](O)[C@@H]2NC)[C@@H](N/C(N)=N\[H])[C@@H]1O [Streptomycin]
Salmonella paratyphi-B
  MIC: 6.25 µg/mL (≈ 10.7 µM)
Shigella flexneri
  MIC: 6.25 µg/mL (≈ 10.7 µM)
[1]
  MIC: 6.25 µg/mL (≈ 10.7 µM)
[2]
  MIC: 6.25 µg/mL (≈ 10.7 µM)
[3]
  MIC: 25 µg/mL (≈ 43 µM)
Pseudomonas aeruginosa
  MIC: 25 µg/mL (≈ 43 µM)
Proteus vulgaris
  MIC: 6.25 µg/mL (≈ 10.7 µM)
[4]
  MIC: 25 µg/mL (≈ 43 µM)
Klebsiella pneumoniae
  MIC: 25 µg/mL (≈ 43 µM)
[5]
  MIC: 25 µg/mL (≈ 43 µM)
Bacillus subtilis
  MIC: 25 µg/mL (≈ 43 µM)
Enterobacter aerogenes
  MIC: 25 µg/mL (≈ 43 µM)
[7]
  MIC: 6.25 µg/mL (≈ 10.7 µM)
[8]
  MIC: 25 µg/mL (≈ 43 µM)
Salmonella typhimurium
  MIC: 25 µg/mL (≈ 43 µM)
Micrococcus luteus
  MIC: 6.25 µg/mL (≈ 10.7 µM)
Staphylococcus aureus
  MIC: 6.25 µg/mL (≈ 10.7 µM)
[9]
  MIC: 25 µg/mL (≈ 43 µM)

## NCC[C@H](O)C(=O)N[C@@H]1C[C@H](N)[C@@H](O[C@H]2O[C@H](CN)[C@@H](O)[C@H](O)[C@H]2O)[C@H](O)[C@H]1O[C@H]1O[C@H](CO)[C@@H](O)[C@H](N)[C@H]1O [amikacin]
[10]
  sensitivity of ERINLG-201 towards antibiotic: sensitivity

## CC1(C)S[C@@H]2[C@H](NC(=O)[C@H](N)c3ccccc3)C(=O)N2[C@H]1C(=O)O [ampicillin]
[10]
  sensitivity of ERINLG-201 towards antibiotic: sensitivity

## O=C(Cc1cccs1)N[C@@H]1C(=O)N2C(C(=O)[O-])=C(C[n+]3ccccc3)CS[C@H]12 [cephaloridine]
[10]
  sensitivity of ERINLG-201 towards antibiotic: sensitivity

## O=C(O)c1cn(C2CC2)c2cc(N3CCNCC3)c(F)cc2c1=O [ciprofloxacin]
[10]
  sensitivity of ERINLG-201 towards antibiotic: sensitivity

## CC[C@H]1OC(=O)[C@H](C)[C@@H](O[C@H]2C[C@@](C)(OC)[C@@H](O)[C@H](C)O2)[C@H](C)[C@@H](O[C@@H]2O[C@H](C)C[C@H](N(C)C)[C@H]2O)[C@](C)(O)C[C@@H](C)C(=O)[C@H](C)[C@@H](O)[C@]1(C)O [erythromycin]
[10]
  sensitivity of ERINLG-201 towards antibiotic: sensitivity

## CCn1cc(C(=O)O)c(=O)c2cc(F)c(N3CCNCC3)cc21 [norfloxacin]
[10]
  sensitivity of ERINLG-201 towards antibiotic: sensitivity

## CO[C@H]1/C=C/O[C@@]2(C)Oc3c(C)c(O)c4c(O)c(cc(O)c4c3C2=O)NC(=O)/C(C)=C\C=C\[C@H](C)[C@H](O)[C@@H](C)[C@@H](O)[C@@H](C)[C@H](OC(C)=O)[C@@H]1C [rifamycin]
[10]
  sensitivity of ERINLG-201 towards antibiotic: sensitivity

## gentamicin
[10]
  sensitivity of ERINLG-201 towards antibiotic: sensitivity

## penicillin
[10]
  sensitivity of ERINLG-201 towards antibiotic: sensitivity

## vencomycin
[10]
  sensitivity of ERINLG-201 towards antibiotic: sensitivity

— patent US10036048B1, “Process for obtaining a naphthoquinone derivative from Streptomyces sp” (KING SAUD UNIVERSITY, priority 2017, dated 2018)
